target: Carbonic anhydrase 7 (Homo sapiens, UniProt P43166)
Sequence (P43166 whole entry): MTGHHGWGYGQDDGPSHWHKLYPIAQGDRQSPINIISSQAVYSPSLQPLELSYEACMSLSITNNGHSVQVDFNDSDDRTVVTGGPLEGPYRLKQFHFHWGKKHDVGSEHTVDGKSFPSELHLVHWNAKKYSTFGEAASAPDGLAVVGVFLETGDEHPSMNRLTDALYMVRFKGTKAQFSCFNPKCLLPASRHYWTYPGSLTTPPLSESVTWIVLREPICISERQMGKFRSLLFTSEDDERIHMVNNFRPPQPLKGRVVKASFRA
Description: Ki value against human carbonic anhydrase VII

Row | SMILES | Ki [nM]
1 | NS(=O)(=O)c1nc2ccccc2s1 | 4
2 | NNc1ccccc1S(N)(=O)=O | 68
3 | Nc1nnc(S(N)(=O)=O)s1 | 5.2
4 | Nc1ccc(S(N)(=O)=O)cc1I | 150
5 | NS(=O)(=O)c1nnc(-c2ccccc2Cl)s1 | 5.4
6 | Nc1ccccc1S(N)(=O)=O | 45
7 | Nc1ccc(S(N)(=O)=O)cc1Br | 61
8 | Cn1nc(S(N)(=O)=O)sc1=N | 4.3
9 | Nc1ccc(S(N)(=O)=O)cc1F | 75
10 | Nc1ccc(S(N)(=O)=O)cc1Cl | 120
11 | NNc1ccc(S(N)(=O)=O)cc1 | 89
12 | Nc1ccc(S(N)(=O)=O)cc1 [SULFANILAMIDE] | 70

The next lines start with the values.

Row | Ki [nM] | SMILES
13 | 5.6 | Nc1ccc(S(=O)(=O)NCc2ccc(S(N)(=O)=O)cc2)cc1
14 | 7 | Nc1ccc(S(=O)(=O)NC2NN=C(S(N)(=O)=O)S2)cc1 (stereo not given)
15 | 6.8 | Nc1nccc(Nc2ccc(S(N)(=O)=O)cc2)n1
16 | 66 | NS(=O)(=O)c1ccc(CCO)cc1
17 | 60 | NS(=O)(=O)c1ccc(CO)cc1
18 | 6.5 | Nc1ccc(S(=O)(=O)NCCc2ccc(S(N)(=O)=O)cc2)cc1
19 | 52 | NS(=O)(=O)c1ccc(C(=O)O)cc1 [CARZENIDE]
20 | 75 | NCc1ccc(S(N)(=O)=O)cc1 [MAFENIDE]
21 | 88 | Cc1ccc(S(N)(=O)=O)cc1 [P-TOLUENESULFONAMIDE]

target: Carbonic anhydrase 1 (Homo sapiens, UniProt P00915)
Sequence (P00915 whole entry): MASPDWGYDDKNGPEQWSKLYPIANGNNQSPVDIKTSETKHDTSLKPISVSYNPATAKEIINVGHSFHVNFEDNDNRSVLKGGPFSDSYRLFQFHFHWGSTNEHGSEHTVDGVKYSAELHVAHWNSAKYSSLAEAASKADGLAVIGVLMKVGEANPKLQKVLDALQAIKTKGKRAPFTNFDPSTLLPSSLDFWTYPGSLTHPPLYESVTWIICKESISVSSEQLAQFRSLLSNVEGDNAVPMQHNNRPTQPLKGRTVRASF
Description: Ki value against human carbonic anhydrase I

Row | SMILES | Ki [nM]
22 | NS(=O)(=O)c1nnc(-c2ccccc2Cl)s1 | 690
23 | NNc1ccc(S(N)(=O)=O)cc1 | 28000

target: Carbonic anhydrase 13 (Mus musculus, UniProt Q9D6N1)
Sequence (Q9D6N1 whole entry): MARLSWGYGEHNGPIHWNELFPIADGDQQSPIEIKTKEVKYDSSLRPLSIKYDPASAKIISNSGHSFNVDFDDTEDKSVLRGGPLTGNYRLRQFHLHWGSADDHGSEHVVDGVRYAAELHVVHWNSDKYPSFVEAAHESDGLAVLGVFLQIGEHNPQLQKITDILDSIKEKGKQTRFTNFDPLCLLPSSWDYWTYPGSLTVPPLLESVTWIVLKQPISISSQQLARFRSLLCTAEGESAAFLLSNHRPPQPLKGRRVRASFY
Description: Ki value against murine carbonic anhydrase XIII

Row | SMILES | Ki [nM]
24 | Nc1ccc(S(=O)(=O)NCc2ccc(S(N)(=O)=O)cc2)cc1 | 2
25 | Nc1ccc(S(=O)(=O)NCCc2ccc(S(N)(=O)=O)cc2)cc1 | 1.9

— ChEMBL document CHEMBL1141985, “Carbonic anhydrase inhibitors. Inhibition of the human cytosolic isozyme VII with aromatic and heterocyclic sulfonamides” (Bioorg Med Chem Lett, 2005)
